Literature values as cited in patent publication US20240123021A1, “PHARMACEUTICAL COMPOSITIONS” (EXTROVIS AG, priority 2021, published 2024).
Square brackets hold non-standard residues; d marks the D form. Peptide text beside a SMILES is read from it. dPhe(4-Cl) = N[C@H](Cc1ccc(Cl)cc1)C(=O)O; d2Nal = N[C@H](Cc1ccc2ccccc2c1)C(=O)O; dCit = NC(=O)NCCC[C@@H](N)C(=O)O; d3Pal = N[C@H](Cc1cccnc1)C(=O)O

Conditions: according to Cetrotide EPAR scientific discussion

Molecule	aggregation and gelling in solution (in solution)	stability (thermal, aqueous solution)
Acetyl-D-3-(2′-naphtyl)-alanine-D-4-chlorophenylalanine-D-3-(3′-pyridyl)alanine-L-serine-L-tyrosine-D-citruline-L-leucine-L-arginine-L-proline-D-alanine-amide [Cetrorelix]	tends to aggregate and gel	–
CC(=O)N[C@H](Cc1ccc2ccccc2c1)C(=O)N[C@H](Cc1ccc(Cl)cc1)C(=O)N[C@H](Cc1cccnc1)C(=O)N[C@@H](CO)C(=O)N[C@@H](Cc1ccc(O)cc1)C(=O)N[C@H](CCCNC(N)=O)C(=O)N[C@@H](CC(C)C)C(=O)N[C@@H](CCCNC(=N)N)C(=O)N1CCC[C@H]1C(=O)N[C@H](C)C(N)=O [Cetrorelix acetate] (Ac-[d2Nal][dPhe(4-Cl)][d3Pal]SY[dCit]LRP[dA]-NH2)	–	thermally labile and unstable in aqueous solution
